Reference: patent publication US8354569B2, “Plant acyltransferases specific for long-chained, multiply unsaturated fatty acids” (University of Bristol, priority 2003, dated 2013)

What was measured:
Thraustochytrium LPAAT = test: Acyl-CoA specificity of Thraustochytrium LPAAT expressed as GST fusion protein in E. coli; assay type: biochemical; settings: 0.4 μg soluble protein fraction, 30 μM 1-oleoyl[U-14C]glycerol-3-phosphate, increasing thioester concentrations
Source text: The PCR product was transferred into the vector pDONOR221 by Gateway reaction (BP reaction; Invitrogen) following the manufacturer's instructions, and the sequence was verified by sequencing. In a next step, the ThLPAAT sequence was then transferred into the vector pDES15 by the LR reaction and employed for expression in E. coli BL21 cells. The ThLPAAT sequence was attached to the open reading frame of the glutathione-S transferase (GST) encoded in the plasmid, in accordance with the manufacturer's instructions. This gave rise to a fusion protein of GST and ThLPAAT.
Expressed protein was detected after expression under standard conditions in E. coli (FIG. 21A) and purified via a glutathione column.
The enzyme assays were determined using 0.4 μg of soluble protein fraction in the presence of 100 mM Tricine-NaOH (pH 8.2), 30 μM 1-oleoyl[U-^14C]glycerol-3-phosphate and increasing concentrations of the thioesters detailed.

Shewanella LPAAT = test: Functional expression of Shewanella LPAAT in E. coli, enzyme assays; assay type: biochemical, Shewanella hanedai; settings: expressed at 10° C. in E. coli BL21, with or without His-tag; 30 μM thioester
Source text: To clone an LPAAT gene from the prokaryotic organism Shewanella, the genomic DNA from Shewanella hanedai was isolated, partially digested with Sau3a and ligated into the vector pUC18. This genomic library was screened for LPAAT genes by a PCR using different primer combinations. This method has made it possible to identify a 1486 by clone whose open reading frame codes for a 25.2 kDa LPAAT protein. The ShLPAAT sequence was introduced into the vector pQE70 (Qiagen) in accordance with the manufacturer's instructions. The resulting plasmids pQE70-Sh and pQE70-ShHis and the blank vector pQE70 were transformed into E. coli BL21 cells and expressed at 10° C. (FIG. 22A). Active protein was obtained at this temperature only (FIG. 22B). The membrane fractions were used for this purpose in the further experiments. […] The high incorporation rate with regard to PUFA acyl-CoA residues is required for the use for the production of PUFA.
The assays were carried out with extracts (1 μg) from E. coli comprising the blank vector (pQE70) or a Shewanella construct without (pQE-Sh) or with His-Tag sequence at the 3′ end (pQE-ShHis) in the presence of 30 μM 1-oleoyl[U-14C]glycerol-3-phosphate and 30 μM of the detailed thioesters.

Structure (SMILES): CC/C=C\C/C=C\C/C=C\C/C=C\C/C=C\C/C=C\CCC(=O)SCCNC(=O)CCNC(=O)[C@H](O)C(C)(C)COP(=O)(O)OP(=O)(O)OC[C@H]1O[C@@H](n2cnc3c(N)ncnc32)[C@H](O)[C@@H]1OP(=O)(O)O [DHA-CoA]
- LPAAT activity of the purified GST fusion protein by acyl-CoA (Thraustochytrium LPAAT): highest activity
- Incorporation activity of the membrane fraction (Shewanella LPAAT): high level of activity
